# Assay results reported in patent US9233954B2, “Organic amine salts of Azilsartan, preparation method and use thereof” (Jiangsu Hansoh Pharmaceutical Co., Ltd., priority 2011, dated 2016).
# Experiment: Hygroscopicity test
# Format: physicochemical
# Details: 25° C.±1° C., RH 80%±2%, 24 h
# Description: 1. A dried glass weighing bottle (Outer diameter […]) with a plug was put into an artificial climate box under the temperature of 25° C.±1° C. and relative humidity (RH) of 80%±2% the day before and then weighed precisely (m1).
# 2. The testing sample was weighed precisely (m2) and lain into the weighing bottle. The thickness of the test sample was about 1 mm.
# 3. The uncovered weighing bottle and its plug were placed under the above constant temperature and humidity conditions for 24 h.
# 4. The weighing bottle was covered and weighed precisely (m3).
# Calculation formula: Percent of weight increase=(m3−m2)/(m2−m1)*100%
# 5. Definition of the weight increase of the hygroscopicity
# Deliquescence: absorbing enough water to form liquid.
# High hygroscopicity: the weight increase of the hygroscopicity is no less than 15%
# Having hygroscopicity: the weight increase of the hygroscopicity is between 15% and 2%
# Slight hygroscopicity: the weight increase of the hygroscopicity is between 2% and 0.2%
# No or almost no hygroscopicity: the weight increase of the hygroscopicity is less than 0.2%
smiles,measurement,setting,value
CCOc1nc2cccc(C(=O)O)c2n1Cc1ccc(-c2ccccc2-c2noc(=O)[nH]2)cc1.CCOc1nc2cccc(C(=O)[O-])c2n1Cc1ccc(-c2ccccc2-c2noc(=O)[nH]2)cc1.C[N+](C)(C)CCO [Example 2],Hygroscopicity (percent of weight increase),,0.02%
same,Conclusion (hygroscopic or not),listed as Example 2 Compound,No
same,Conclusion (hygroscopic or not),listed as example 2 compound,not hygroscopic
